Source: US20250230193A1, “CYCLIC COMPOUND HAVING SELECTIVE KRAS INHIBITORY EFFECT ON HRAS AND NRAS” (CHUGAI SEIYAKU KABUSHIKI KAISHA, priority 2022, published 2025)

Columns and labels:
[1] = molecular target: GDP-bound HRAS wild-type protein (Homo sapiens, UniProt P01112); assay: Binding to HRAS by surface plasmon resonance (SPR), Single Cycle Kinetics; settings: KD ratio HRAS/KRAS, class symbols
[2] = molecular target: GDP-bound NRAS wild-type protein (Homo sapiens, UniProt P01111); assay: Binding to NRAS by surface plasmon resonance (SPR), Single Cycle Kinetics; settings: KD ratio NRAS/KRAS, class symbols
Chain of GDP-bound NRAS wild-type protein (P01111 whole entry): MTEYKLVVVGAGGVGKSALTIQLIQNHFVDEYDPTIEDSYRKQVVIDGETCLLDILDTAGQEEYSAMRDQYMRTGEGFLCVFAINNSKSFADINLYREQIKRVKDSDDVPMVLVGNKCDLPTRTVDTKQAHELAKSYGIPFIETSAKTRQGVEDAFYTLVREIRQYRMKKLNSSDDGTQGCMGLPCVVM

Chain of GDP-bound HRAS wild-type protein (P01112 whole entry): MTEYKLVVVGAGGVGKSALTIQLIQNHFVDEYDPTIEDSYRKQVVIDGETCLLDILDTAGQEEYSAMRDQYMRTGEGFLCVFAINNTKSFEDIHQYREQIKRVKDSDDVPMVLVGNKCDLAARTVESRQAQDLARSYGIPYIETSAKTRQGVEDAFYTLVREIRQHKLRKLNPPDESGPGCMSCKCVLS

Compound	HRAS/KRAS (ratio of KD value with respect to GDP-bound HRAS wild-type protein to KD value with respect to KRAS) [1]	NRAS/KRAS (ratio of KD value with respect to GDP-bound NRAS wild-type protein to KD value with respect to KRAS) [2]
CCC[C@H]1C(=O)N[C@@H]([C@@H](C)CC)C(=O)N(C2CC2)CC(=O)N(C)[C@H]2C/C=C\CCN(C2=O)[C@@H](Cc2ccc(C)cc2)C(=O)N(C)CC(=O)N[C@@H](CCc2ccc(Cl)c(Cl)c2)C(=O)N2C[C@H](OC3CCC3)C[C@H]2C(=O)NC2(CC(C)(C)C2)C(=O)N(C)[C@@H](C2CCCC2)C(=O)N(C)[C@H](C(=O)N(C)C)CC(=O)N1C [PP2616]	A (a compound having 10 or more and less than 20 is denoted as A)	A (a compound having 10 or more and less than 20 is denoted as A)
CC[C@H](C)[C@@H]1NC(=O)[C@H](COC)N(C)C(=O)C[C@@H](C(=O)N(C)C)N(C)C(=O)[C@H](C2CCCC2)N(C)C(=O)C2(CC(C)(C)C2)NC(=O)[C@@H]2C[C@@H](OC3CCC3)CN2C(=O)[C@H](CCc2cc(F)c(C(F)(F)F)c(F)c2)NC(=O)CN(C)C(=O)[C@H](CC2CCCCC2)N2CC/C=C\C[C@@H](C2=O)N(C)C(=O)CN(C2CC2)C1=O [PP2618]	A (a compound having 10 or more and less than 20 is denoted as A)	A (a compound having 10 or more and less than 20 is denoted as A)
CCC(CC)[C@H]1C(=O)N(C)[C@H](C(=O)N(C)C)CC(=O)N(C)[C@@H](COC)C(=O)N[C@@H]([C@@H](C)CC)C(=O)N(C2CC2)CC(=O)N(C)[C@H]2C/C=C\CCN(C2=O)[C@@H](Cc2ccc(C)cc2)C(=O)N(C)CC(=O)N[C@@H](CCc2cc(F)c(C(F)(F)F)c(F)c2)C(=O)N2C[C@H](OC3CCCC3)C[C@H]2C(=O)NC2(CC(C)(C)C2)C(=O)N1C [PP2619]	A (a compound having 10 or more and less than 20 is denoted as A)	AA (a compound having 20 or more is denoted as AA)
CC[C@H](C)[C@@H]1NC(=O)[C@H](COC)N(C)C(=O)C[C@@H](C(=O)N(C)C)N(C)C(=O)[C@H](C2CCCC2)N(C)C(=O)C2(CC(C)(C)C2)NC(=O)[C@@H]2C[C@@H](OC3CCC3)CN2C(=O)[C@H](CCc2cc(F)c(C(F)(F)F)c(F)c2)NC(=O)CN(C)C(=O)[C@H](CC2CCC(F)(F)CC2)N2CC/C=C\C[C@@H](C2=O)N(C)C(=O)CN(C2CC2)C1=O [PP2622]	B (a compound having 3 or more and less than 10 is denoted as B)	A (a compound having 10 or more and less than 20 is denoted as A)
CC[C@H](C)[C@@H]1NC(=O)[C@H](COC)N(C)C(=O)C[C@@H](C(=O)N(C)C)N(C)C(=O)[C@H](C2CCCC2)N(C)C(=O)C2(CC(C)(C)C2)NC(=O)[C@@H]2C[C@@H](OC3CCC3)CN2C(=O)[C@H](CCc2ccc(Cl)c(Cl)c2)NC(=O)CN(C)C(=O)[C@H](CC2CCC(F)(F)CC2)N2CC/C=C\C[C@@H](C2=O)N(C)C(=O)CN(C2CC2)C1=O [PP2624]	A (a compound having 10 or more and less than 20 is denoted as A)	A (a compound having 10 or more and less than 20 is denoted as A)
CC[C@H](C)[C@@H]1NC(=O)[C@H](COC)N(C)C(=O)C[C@@H](C(=O)N(C)C)N(C)C(=O)[C@H](C2CCCC2)N(C)C(=O)C2(CC(C)(C)C2)NC(=O)[C@@H]2C[C@@H](OC3CCCC3)CN2C(=O)[C@H](CCc2cc(F)c(C(F)(F)F)c(F)c2)NC(=O)CN(C)C(=O)[C@H](Cc2ccc(C)cc2)N2CC/C=C\C[C@@H](C2=O)N(C)C(=O)CN(C2CC2)C1=O [PP2626]	A (a compound having 10 or more and less than 20 is denoted as A)	A (a compound having 10 or more and less than 20 is denoted as A)
CCC(CC)[C@H]1C(=O)N(C)[C@H](C(=O)N(C)C)CC(=O)N(C)[C@@H](COC)C(=O)N[C@@H]([C@@H](C)CC)C(=O)N(C2CC2)CC(=O)N(C)[C@H]2C/C=C\CCN(C2=O)[C@@H](CC2CCC(F)(F)CC2)C(=O)N(C)CC(=O)N[C@@H](CCc2cc(F)c(C(F)(F)F)c(F)c2)C(=O)N2C[C@H](OC3CCCC3)C[C@H]2C(=O)NC2(CC(C)(C)C2)C(=O)N1C [PP2627]	A (a compound having 10 or more and less than 20 is denoted as A)	A (a compound having 10 or more and less than 20 is denoted as A)
CC[C@H](C)[C@@H]1NC(=O)[C@H](COC)N(C)C(=O)C[C@@H](C(=O)N(C)C)N(C)C(=O)[C@H](C2CCCC2)N(C)C(=O)C2(CC(C)(C)C2)NC(=O)[C@@H]2C[C@@H](OC3CCCC3)CN2C(=O)[C@H](CCc2ccc(Cl)c(Cl)c2)NC(=O)CN(C)C(=O)[C@H](Cc2ccc(C)cc2)N2CC/C=C\C[C@@H](C2=O)N(C)C(=O)CN(C2CC2)C1=O [PP2628]	A (a compound having 10 or more and less than 20 is denoted as A)	A (a compound having 10 or more and less than 20 is denoted as A)
CC[C@H](C)[C@@H]1NC(=O)[C@H](COC)N(C)C(=O)C[C@@H](C(=O)N(C)C)N(C)C(=O)[C@H](C2CCCC2)N(C)C(=O)C2(CC(C)(C)C2)NC(=O)[C@@H]2C[C@@H](OC3CCCC3)CN2C(=O)[C@H](CCc2cc(F)c(C(F)(F)F)c(F)c2)NC(=O)CN(C)C(=O)[C@H](CC2CCCCC2)N2CC/C=C\C[C@@H](C2=O)N(C)C(=O)CN(C2CC2)C1=O [PP2630]	B (a compound having 3 or more and less than 10 is denoted as B)	A (a compound having 10 or more and less than 20 is denoted as A)
CCC(CC)[C@H]1C(=O)N(C)[C@H](C(=O)N(C)C)CC(=O)N(C)[C@@H](COC)C(=O)N[C@@H]([C@@H](C)CC)C(=O)N(C2CC2)CC(=O)N(C)[C@H]2C/C=C\CCN(C2=O)[C@@H](Cc2ccc(C(F)F)cc2)C(=O)N(C)CC(=O)N[C@@H](CCc2cc(F)c(C(F)(F)F)c(F)c2)C(=O)N2C[C@H](OC3CCC3)C[C@H]2C(=O)NC2(CC(C)(C)C2)C(=O)N1C [PP2631]	A (a compound having 10 or more and less than 20 is denoted as A)	AA (a compound having 20 or more is denoted as AA)
CCC(CC)[C@H]1C(=O)N(C)[C@H](C(=O)N(C)C)CC(=O)N(C)[C@@H](COC)C(=O)N[C@@H]([C@@H](C)CC)C(=O)N(C2CC2)CC(=O)N(C)[C@H]2C/C=C\CCN(C2=O)[C@@H](Cc2ccc(C(F)F)cc2)C(=O)N(C)CC(=O)N[C@@H](CCc2cc(F)c(C(F)(F)F)c(F)c2)C(=O)N2C[C@H](OC3CCCC3)C[C@H]2C(=O)NC2(CC(C)(C)C2)C(=O)N1C [PP2633]	A (a compound having 10 or more and less than 20 is denoted as A)	AA (a compound having 20 or more is denoted as AA)
CC[C@H](C)[C@@H]1NC(=O)[C@H](COC)N(C)C(=O)C[C@@H](C(=O)N(C)C)N(C)C(=O)[C@H](C2CCCC2)N(C)C(=O)C2(CC(C)(C)C2)NC(=O)[C@@H]2C[C@@H](OC3CCCC3)CN2C(=O)[C@H](CCc2cc(F)c(C(F)(F)F)c(F)c2)NC(=O)CN(C)C(=O)[C@H](CC2CCC(F)(F)CC2)N2CC/C=C\C[C@@H](C2=O)N(C)C(=O)CN(C2CC2)C1=O [PP2634]	A (a compound having 10 or more and less than 20 is denoted as A)	A (a compound having 10 or more and less than 20 is denoted as A)
CCO[C@@H]1C[C@H]2C(=O)NC3(CC(C)(C)C3)C(=O)N(C)[C@@H](C(CC)CC)C(=O)N(C)[C@H](C(=O)N(C)C)CC(=O)N(C)[C@@H](COC)C(=O)N[C@@H]([C@@H](C)CC)C(=O)N3CCC[C@H]3C(=O)N(C)[C@H]3C/C=C\CCN(C3=O)[C@@H](Cc3ccc(C(F)(F)F)cc3)C(=O)N(C)CC(=O)N[C@@H](CCc3ccc(Cl)c(Cl)c3)C(=O)N2C1 [PP2635]	A (a compound having 10 or more and less than 20 is denoted as A)	AA (a compound having 20 or more is denoted as AA)
CCC[C@H]1C(=O)N[C@@H]([C@@H](C)CC)C(=O)N2CCC[C@H]2C(=O)N(C)[C@H]2C/C=C\CCN(C2=O)[C@@H](Cc2ccc(C(F)F)cc2)C(=O)N(C)CC(=O)N[C@@H](CCc2ccc(Cl)c(Cl)c2)C(=O)N2C[C@H](OCC)C[C@H]2C(=O)NC2(CC(C)(C)C2)C(=O)N(C)[C@@H](C(CC)CC)C(=O)N(C)[C@H](C(=O)N(C)C)CC(=O)N1C [PP2637]	A (a compound having 10 or more and less than 20 is denoted as A)	AA (a compound having 20 or more is denoted as AA)
CCC[C@H]1C(=O)N[C@@H]([C@@H](C)CC)C(=O)N2CCC[C@H]2C(=O)N(C)[C@H]2C/C=C\CCN(C2=O)[C@@H](Cc2ccc(C)cc2)C(=O)N(C)CC(=O)N[C@@H](CCc2ccc(Cl)c(Cl)c2)C(=O)N2C[C@H](OCC)C[C@H]2C(=O)NC2(CC(C)(C)C2)C(=O)N(C)[C@@H](C(CC)CC)C(=O)N(C)[C@H](C(=O)N(C)C)CC(=O)N1C [PP2638]	A (a compound having 10 or more and less than 20 is denoted as A)	AA (a compound having 20 or more is denoted as AA)
